Results as given in paper PMC11579209, “Population pharmacokinetics and exposure–response relationships of maribavir in transplant recipients with cytomegalovirus infection” (Journal of Pharmacokinetics and Pharmacodynamics, 2024).

Assay: Population pharmacokinetic (PopPK) model (NONMEM), pooled maribavir plasma concentration–time data from phase 1, 2 and 3 studies
Format: in vivo, human
Procedure: A PopPK model was developed using non-linear mixed effects modeling (NONMEM) (v7.4.3) with pooled maribavir plasma concentration–time data from 667 participants in nine phase 1 studies (n = 182, single or repeated doses of 100, 200 or 400 mg), two phase 2 studies (NCT01611974, EudraCT 2010-024247-32, 400, 800, and 1200 mg BID), and one phase 3 study (SOLSTICE, NCT02931539, 400 mg BID; phase 2 and 3 combined: n = 485). The final PopPK analysis dataset comprised data from individuals who had received at least one dose of maribavir and had at least one quantifiable post-dose concentration. This model was used to describe the time course of maribavir plasma concentrations in healthy volunteers, participants with hepatic or renal impairment, stable renal transplant patients, and hematopoietic cell transplant (HCT) or solid organ transplant (SOT) recipients with CMV infection, including those with refractory CMV infection.
One- (ADVAN2 TRANS2), two- (ADVAN4 TRANS4), and three (ADVAN12 TRANS4)-compartment models with first-order absorption, an absorption lag time, and linear clearance were initially investigated. The NONMEM control stream for the final model can be found in the Supplementary Methods S1 of the Supplementary Material 1. […] Consequently, the effects of co-administration of strong CYP3A4 inhibitors and strong CYP3A4 inducers were considered for inclusion in the base model. The effect of body weight (scaled to 70 kg) on both clearance and volume terms was also considered for inclusion in the base model.
Structural and variance model parameters were estimated for the base model, and inter-individual variability (IIV) was included on all structural parameters. Runs with untransformed data were used to test the residual error models. Plots of weighted residuals were evaluated for homoscedasticity with respect to predictions and time since dose, and the structure of the base model was expanded as necessary to best reflect the characteristic shape of the observations over time. Dose and time dependency were explored for PK model parameters. Parameter estimation was performed using Monte Carlo Importance Sampling Expectation Maximization assisted by Mode a Posteriori, with MU referencing (where THETAs that define typical values of individual parameters, and are associated with random effects, are referenced in a PHI/MU format) to improve the efficiency of computations. The impact of post-dose observations below the lower limit of quantification (BLQ) was assessed in initial models by implementing the M3 method, which maximizes the likelihood for all the data treating BLQ observations as censored. The performance of the final PopPK model was evaluated using a confidence interval prediction-corrected visual predictive check (CI-pcVPC) method. In addition, the percentage of observations outside the overall 5th and 95th percentiles of the predicted data was calculated.
Strong CYP3A4 inhibitors and inducers, as well as weight, were included in the base model.
Continuous covariates were obtained from observations on the first day of dosing, or at screening if this value was not available. […] Categorical covariates were tested and incorporated in the model as a series of index variables taking on values of zero or one.
The full model with backwards deletion approach was used for covariate modeling, with all covariate parameter relationships of interest entered into the model simultaneously. Highly correlated covariates were tested one at a time to avoid confounding in the estimation of covariate effects. A backwards deletion was carried out at the p = 0.001 significance level. The order of removal was based on the relative standard error and 95% confidence interval (CI) of the parameter estimate.

[1] = reference: 70-kg individual without CMV, 800 mg

## CC(C)Nc1nc2cc(Cl)c(Cl)cc2n1[C@H]1O[C@@H](CO)[C@H](O)[C@@H]1O [maribavir]
Final PopPK model
  CL/F higher in the presence of strong CYP3A4 inducers: 2.24 fold
  CL/F lower in the presence of strong CYP3A4 inhibitors: 30%
  CL/F ~ CYP3A strong inducers, covariate estimate: 2.24
  CL/F ~ CYP3A strong inhibitors, covariate estimate: 0.700
  CL/F ~ transplant patients with CMV, covariate estimate: 0.756
human, in vivo
  CL/F lower for transplant recipients with CMV infection than for all other individuals: 24%
[1]
  Ka (first-order absorption), PopPK estimate: 0.336 h^–1
  Lag-time, PopPK estimate: 0.271 h
  Q/F (inter-compartment clearance), PopPK estimate: 0.908 L/h
  Vc/F (apparent volume of central compartment), PopPK estimate: 18.6 L
  Vp/F (apparent volume of peripheral compartment), PopPK estimate: 8.66 L
reference: 70-kg individual without CMV, 800 mg maribavir, no CYP3A strong inhibitors or inducers
  CL/F (apparent total clearance), PopPK estimate: 3.77 L/h
